Experimental data as given in patent US7524503B2, “Human cytomegalovirus (HCMV) cytotoxic T cell epitopes, polyepitopes compositions comprising same and diagnostic and prophylactic and therapeutic uses therefor” (priority 2001, dated 2009).
Where no end group is shown, it is not given here.

Key:
[1] = target: T1, HLA A2 (Homo sapiens, UniProt P04439, D140Y/D185E/D98H/E176V/E277Q/G131W/G231S/I119V/I121R/I166T/I218V/L300P/L318F/N151K/N90K/P208A/P217A/Q86G/Q94H/R138H/R169H/T345S); format: cell-based; conditions: HLA A2 on T2 cells; relative increase in HLA expression vs no peptide at 26° C.
T1 construct: endogenous in cells; host or cells: T2 cells

[2] = tested on: PBMC from healthy HCMV seropositive donors; test: IFN-γ ELISPOT assay; format: cell-based, human; conditions: peptide 10 μg/ml
Protocol: ELISPOT assay was used to assess whether stimulation of PBMC from a large panel of seropositive donors with HCMV peptides could induce IFN-γ expression in T cells. Briefly, a 96-well nitrocellulose plate (Multiscreen, Millipore) was coated overnight at 4° C. with mouse monoclonal antibody anti-IFN-γ IgG1 (10 μg/ml; Mabtech Nacka, Sweden). The plate was then washed six times in Phosphate Buffered Saline (PBS) and blocked for 1 hour at 37° C. with PBS supplemented with 5% FCS. The blocking solution was removed and PBMC from healthy HCMV seropositive donors were added at a concentration of 2.5×10^5 cells per well in growth medium. These cells were incubated for 18 h at 37° C. in a 5% CO2 atmosphere in the presence of synthetic peptides from HCMV antigens (10 μg/ml). After incubation, the plate was washed three times with PBS supplemented with 0.05% Tween, followed by three washes with PBS alone. Biotinylated anti-IFN-γ (Mabtech, Nacka Sweden) detection antibody was added to each well at a final concentration of 1 μg/ml in PBS. The plates were incubated at room temperature in the dark for 4 h and then washed, as described above. Streptavidin-Alkaline phosphatase (Sigma) was added to each well at a final concentration of 1 μg/ml in PBS and incubated at room temperature in the dark for 2 h. After a final wash with PBS, the substrate, 5-bromo-4-chloro-3-indolyl phosphate and nitro blue tetrazolium, was added to each well and the plates incubated for 30 min at RT. Cells that produced IFN-γ in response to the presence of peptide were detected as purple spots on the nitrocellulose membrane of each well. The spots were counted automatically using a closed-circuit camera (CCD) and ImagePro image analysis software or automated ELISPOT reader (AID, Germany). The T cell precursor frequency for each peptide was based on the total number of PBMC in the well and the number of peptide-specific spots per well, over an average of 3 wells. The number of peptide-specific spots was also calculated by subtracting the negative control values, which consisted of PBMC without peptide (an average of 3 wells), from the test wells.
To determine whether memory CTL responses against the predictive HCMV potential epitopes could be detected in healthy seropositive virus carriers, we used the ELISPOT assay, which allows rapid identification of CTL epitopes without prolonged in vitro culture.
We tested epitopes that were restricted for HLA A1, A3, A24, A26, B7, B8, B27, B35 and B44 in ELISPOT assays, to determine whether memory T cell responses could be detected in healthy HLA-matched virus carriers. PBMC from a cohort of healthy virus carriers (Table 2) were stimulated with individual peptides and the cells that produced IFN-γ were detected. CTL epitopes that were restricted through either HLA A1, A3, A24, A26, B7, B8 or B27, were identified.
Thus, a total of 450 peptides were produced. ELISPOT assays were used to determine whether ex vivo memory T cell responses could be detected in a cohort of 14 healthy virus carriers (Table 2). PBMC were stimulated with individual peptides and the cells that produced IFN-γ were detected.

| Sequence | MSE (MHC stabilization efficiency) [1] | ELISPOT Responses (SFC/10^6 PBMC) ([2]; donor sixteen) | also measured |
| --- | --- | --- | --- |
| DLVPLTVSV (human cytomegalovirus pp71 CTL epitope peptide) | + (+ = 51-99%) |  |  |
| LDEGIMVVY (human cytomegalovirus gB CTL epitope peptide) |  | TC(239) SFC/10^6 PBMC |  |
| ILDEERDKV (human cytomegalovirus IE1 CTL epitope peptide) | ++ (++ = 100-199%) |  |  |
| GLLGASMDL (human cytomegalovirus pp28 CTL epitope peptide) | − (− = 0-50%) |  |  |
| CVETMCNEY (human cytomegalovirus IE1 CTL epitope peptide) [reference compound] |  | TC(4187) SFC/10^6 PBMC |  |
| TLVIPSWHV (human cytomegalovirus pp71 CTL epitope peptide) | ++ (++ = 100-199%) |  |  |
| GLDDLMSGL (human cytomegalovirus gB CTL epitope peptide) | ++ (++ = 100-199%) |  |  |
| RRKMMYMCYRNIEFFTKNSA (human cytomegalovirus IE1 CTL epitope peptide) |  |  | ELISPOT Responses (SFC/10^6 PBMC) ([2]; donor fifteen): CP(632) SFC/10^6 PBMC |
| IGDQYVKVY |  | 67 SFC/10^6 PBMC | ELISPOT Responses (SFC/10^6 PBMC) ([2]; donor eleven): 565 SFC/10^6 PBMC |
| LLGALNLCL (human cytomegalovirus IE2 CTL epitope peptide) | ++ (++ = 100-199%) |  |  |
| QLLIPKSFTL (human cytomegalovirus pp71 CTL epitope peptide) | − (− = 0-50%) |  |  |
| PLREYLADL (human cytomegalovirus pp28 CTL epitope peptide) | − (− = 0-50%) |  |  |
| YLTVFTVYL (human cytomegalovirus gH CTL epitope peptide) | ++ (++ = 100-199%) |  |  |
| FLGARSPSL (human cytomegalovirus pp150 CTL epitope peptide) | ++ (++ = 100-199%) |  |  |
| RVKIDEVSRMFRNTNRSLEY |  | 194 SFC/10^6 PBMC | ELISPOT Responses (SFC/10^6 PBMC) ([2]; donor epsilon): 306 SFC/10^6 PBMC |
| SLVRLVYIL (human cytomegalovirus gH CTL epitope peptide) | + (+ = 51-99%) |  |  |
| ILFDGHDLL (human cytomegalovirus gH CTL epitope peptide) | +++ (+++ = 200-300%) |  |  |
| TMWCLTLFV (human cytomegalovirus UL18 CTL epitope peptide) | ++ (++ = 100-199%) |  |  |
| HANTALVNAVNKLVYTGRLI (human cytomegalovirus pp150 CTL epitope peptide) |  |  | ELISPOT Responses (SFC/10^6 PBMC) ([2]; donor three): MW(122) SFC/10^6 PBMC |

| Sequence | MSE (MHC stabilization efficiency) [1] | ELISPOT Responses (SFC/10^6 PBMC) ([2]; donor sixteen) | also measured |
| --- | --- | --- | --- |
| YINRALAQI (human cytomegalovirus gB CTL epitope peptide) | ++ (++ = 100-199%) |  |  |
| GLDRNSGNY (human cytomegalovirus pp50 CTL epitope peptide) |  | 507 SFC/10^6 PBMC | ELISPOT Responses (SFC/10^6 PBMC) ([2]; donor three): 345 SFC/10^6 PBMC |
| SAIIGIYLL (human cytomegalovirus gH CTL epitope peptide) | − (− = 0-50%) |  |  |
| YLLYRMLKT (human cytomegalovirus gH CTL epitope peptide) | − (− = 0-50%) |  |  |
| PLIPTTAVI (human cytomegalovirus pp150 CTL epitope peptide) | − (− = 0-50%) |  |  |
| VIGDQYVKV [reference compound] | ++ (++ = 100-199%) |  |  |
| CTPNVQTRRGRVKIDEVSRM |  | TC(89) SFC/10^6 PBMC |  |
| RGDPFDKNY (human cytomegalovirus pp50 CTL epitope peptide) |  | 2739 SFC/10^6 PBMC | ELISPOT Responses (SFC/10^6 PBMC) ([2]; donor nine): 720 SFC/10^6 PBMC |
| DLDEGIMVV (human cytomegalovirus gB CTL epitope peptide) | − (− = 0-50%) |  |  |
| HRQDALPGPCIASTPKKHRG |  |  | ELISPOT Responses (SFC/10^6 PBMC) ([2]; donor epsilon): SC(109) SFC/10^6 PBMC |
| ATSTGDVVY (human cytomegalovirus gB CTL epitope peptide) |  | TC(239) SFC/10^6 PBMC |  |
| RIEENLEGV (human cytomegalovirus pp150 CTL epitope peptide) | + (+ = 51-99%) |  |  |
| QMWQARLTV | + (+ = 51-99%) |  |  |
| YRNMIIHAATPVDLLGALNL (human cytomegalovirus IE2 CTL epitope peptide) |  | TC(137) SFC/10^6 PBMC | ELISPOT Responses (SFC/10^6 PBMC) ([2]; donor eight): 132 SFC/10^6 PBMC; ELISPOT Responses (SFC/10^6 PBMC) ([2]; donor epsilon): 229 SFC/10^6 PBMC |
| IKEHMLKKY (human cytomegalovirus IE1 CTL epitope peptide) |  | TC(4232) SFC/10^6 PBMC |  |
| PRVTSPTHPLSQMNHPPLPD |  | 96 SFC/10^6 PBMC | ELISPOT Responses (SFC/10^6 PBMC) ([2]; donor eight): 52 SFC/10^6 PBMC |
| PVDLLGALNLCLPLMQKFPK (human cytomegalovirus IE2 CTL epitope peptide) |  | 169 SFC/10^6 PBMC | ELISPOT Responses (SFC/10^6 PBMC) ([2]; donor epsilon): 111 SFC/10^6 PBMC |
| STSQKPVLGKRVATPHASAR (human cytomegalovirus pp150 CTL epitope peptide) |  |  | ELISPOT Responses (SFC/10^6 PBMC) ([2]; donor three): MW(215) SFC/10^6 PBMC |
| DEEEAIVAY (human cytomegalovirus IE1 CTL epitope peptide) |  | TC(3903) SFC/10^6 PBMC |  |

| Sequence | MSE (MHC stabilization efficiency) [1] | ELISPOT Responses (SFC/10^6 PBMC) ([2]; donor sixteen) | also measured |
| --- | --- | --- | --- |
| MLPLIKQEDIKPEPDFTIQY |  |  | ELISPOT Responses (SFC/10^6 PBMC) ([2]; donor seven): SB(132) SFC/10^6 PBMC |
| PLGRPDEDSSSSSSSSCSSA |  | TC(46) SFC/10^6 PBMC |  |
| KCSSGGGASVTSSHHGRGGF |  | TC(54) SFC/10^6 PBMC |  |
| LTVSGLAWTRQQNQWKEPDV |  |  | ELISPOT Responses (SFC/10^6 PBMC) ([2]; donor epsilon): SC(695) SFC/10^6 PBMC |
| ASSPSTGSGTPRBTSPTHPL (ASSPSTGSGTPRXTSPTHPL; not fully specified) |  |  | ELISPOT Responses (SFC/10^6 PBMC) ([2]; donor eight): JW(95) SFC/10^6 PBMC |
| NIEFFTKNSAFPKTTNGCSQ (human cytomegalovirus IE1 CTL epitope peptide) |  |  | ELISPOT Responses (SFC/10^6 PBMC) ([2]; donor fifteen): CP(1767) SFC/10^6 PBMC |
| WQPAAQPKRRRHRQDALPGP |  |  | ELISPOT Responses (SFC/10^6 PBMC) ([2]; donor epsilon): SC(615) SFC/10^6 PBMC |
| TSAGRKRKSASSATACTSGV |  |  | ELISPOT Responses (SFC/10^6 PBMC) ([2]; donor epsilon): SC(138) SFC/10^6 PBMC |
| FETSGGLVVFWQGIKQKSLV (human cytomegalovirus gB CTL epitope peptide) |  |  | ELISPOT Responses (SFC/10^6 PBMC) ([2]; donor four): 23 SFC/10^6 PBMC; ELISPOT Responses (SFC/10^6 PBMC) ([2]; donor seven): 185 SFC/10^6 PBMC |
| KDVALRHVVCAHELVCSMEN |  | TC(50) SFC/10^6 PBMC |  |
| TVQGQNLKY |  | 251 SFC/10^6 PBMC | ELISPOT Responses (SFC/10^6 PBMC) ([2]; donor eleven): 385 SFC/10^6 PBMC |
| YEQHKITSY (human cytomegalovirus pp50 CTL epitope peptide) |  |  | ELISPOT Responses (SFC/10^6 PBMC) ([2]; donor five): CS(67) SFC/10^6 PBMC |
| VKESPGRCY (human cytomegalovirus gB CTL epitope peptide) |  | TC(51) SFC/10^6 PBMC |  |
| TENGSFVAGY (human cytomegalovirus UL18 CTL epitope peptide) |  |  | ELISPOT Responses (SFC/10^6 PBMC) ([2]; donor five): CS(283) SFC/10^6 PBMC |
| YRHTWDRHDEGAAQGDDDVW |  |  | ELISPOT Responses (SFC/10^6 PBMC) ([2]; donor epsilon): SC(295) SFC/10^6 PBMC |
| ALTVSEHVSYVVTNQYLIKG |  |  | ELISPOT Responses (SFC/10^6 PBMC) ([2]; donor four): MB(23) SFC/10^6 PBMC |
| RPSTPRAAV (human cytomegalovirus pp150 CTL epitope peptide) |  |  | ELISPOT Responses (SFC/10^6 PBMC) ([2]; donor four): MB(306) SFC/10^6 PBMC |
| THQLCPRSSDYRNMIIHAAT (human cytomegalovirus IE2 CTL epitope peptide) |  | 124 SFC/10^6 PBMC | ELISPOT Responses (SFC/10^6 PBMC) ([2]; donor epsilon): 173 SFC/10^6 PBMC |
| NTDFRVLEL (human cytomegalovirus gB CTL epitope peptide) |  | TC(1631) SFC/10^6 PBMC |  |
